According to patent publication US8158632B2, “Pyrazolo[1,5-a]pyrimidines, processes, uses and compositions” (priority 2006, dated 2012):

Legend:
[1] = tested on: α1 subunit of the GABAA receptor; assay: Ligand-binding assay, competitive with radiolabeled flumazenil, cerebellum membranes; conditions: 1 nM radiolabeled flumazenil, rat cerebellum membranes; for % inhib 10^−5M: 10^−5M compound; for % inhib 10^−7M: 10^−7M compound
Procedure: (§1) a) Ligand-Binding Assays. Determination of the Affinity of Test Compounds for α1- and α2-GABAA Receptor
(§2) Male Sprague-Dawley rats weighing 200-250 g at the time of experiment were used. After decapitation of the animal, the cerebellum (tissue that mostly contains α1-GABAA receptor) and spinal cord (tissue that mostly contains α2-GABAA receptor) were removed. The membranes were prepared according to the method by J. Lameh et al. (Prog. Neuro-Psychopharmacol. Biol. Psychiatry, 24, 979-991, 2000) and H. Noguchi et al. (Eur. J. Pharm., 434, 21-28, 2002) with slight modifications. Once the tissues weighed, they were suspended in 50 mM Tris.HCl (pH 7.4), 1:40 (v/v), or sucrose 0.32 M in the case of spinal cord, homogenized and then centrifuged at 20000 g for 10 min at 7° C. The resulting pellet was resuspended under the same conditions and centrifuged again. The pellet was finally resuspended on a minimum volume and kept at −80° C. overnight. On the next day, the process was repeated until the final pellet was resuspended at a ratio of 1:10 (v/v) in the case of cerebellum and at a ratio of 1:5 (v/v) in the case of spinal cord.
Affinity was determined by competitive tests using radiolabeled flumazenil as ligand. The tests were performed according to the methods described by S. Arbilla et al. (Eur. J. Pharmacol., 130, 257-263, 1986); and Y. Wu et al. (Eur. J. Pharmacol., 278,125-132, 1995) using 96-well microtiter plates. The membranes containing the study receptors, flumazenil (radiolabeling at a final concentration of 1 nM) and ascending concentrations of test compounds (in a total volume of 230 μL in 50 mM [ph 7.4] Tris.HCl buffer) were incubated. Simultaneously, the membranes were only incubated with the radiolabeled flumazenil (total binding, 100%) and in the presence of an elevated concentration of unradiolabeled flumazenil (non-specific binding, % estimation of radiolabeled ligand). The reactions started on adding the radiolabeled ligand followed by incubation for 60 minutes at 4° C. At the end of the incubation period, 200 μL of reaction were transferred to a multiscreen plate (Millipore) and filtered using a vacuum manifold and then washed three times with cold test buffer. The multiscreen plates were equipped with a GF/B filter that retained the membranes containing the receptors and the radiolabeled ligand which had been bound to the receptors. After washing, the plates were left till dry. Once dried, scintillation liquid was added and left under stirring overnight. The next day the plates were counted using a Perkin-Elmer Microbeta scintillation counter.
(§3) For analysis of the results the percentage of specific binding for every concentration of test compound was calculated as follows: % specific binding=(X−N/T−N)×100 where, • X: amount of bound ligand for every concentration of compound. • T: total binding, maximum amount bound to the radiolabeled ligand. • N: non-specific binding, amount of radiolabeled ligand bound in a non-specific way irrespective of the receptor used.
(§4) Every concentration of compounds was tested in triplicate and their mean values were used to determine the experimental values of % specific binding versus the concentration of compound. Affinity data are expressed as % inhibition at 10^−5M and 10^−7M concentrations for α1 subunit and at 10^-5M for α2 subunit.

[2] = tested on: α2 subunit of the GABAA receptor; assay: Ligand-binding assay, competitive with radiolabeled flumazenil, spinal cord membranes; conditions: 10^−5M compound; 1 nM radiolabeled flumazenil; rat spinal cord membranes
Procedure: as §1, §2
Affinity was determined by competitive tests using radiolabeled flumazenil as ligand. The tests were performed according to the methods described by S. Arbilla et al. (Eur. J. Pharmacol., 130, 257-263, 1986); and Y. Wu et al. (Eur. J. Pharmacol., 278,125-132, 1995) using 96-well microtiter plates. The membranes containing the study receptors, flumazenil (radiolabeling at a final concentration of 1 nM) and ascending concentrations of test compounds (in a total volume of 230 μL in 50 mM [ph 7.4] Tris.HCl buffer) were incubated. Simultaneously, the membranes were only incubated with the radiolabeled flumazenil (total binding, 100%) and in the presence of an elevated concentration of unradiolabeled flumazenil (non-specific binding, % estimation of radiolabeled ligand). […] The next day the plates were counted using a Perkin-Elmer Microbeta scintillation counter.
as §3, §4

mice = assay: In vivo predictive sedation-hypnosis test (traveled distance); conditions: male CD1 mice; for % inhib motor activity: 98 μmol/kg ip, traveled distance over 30 min (first 5 min discarded) vs control
Procedure: b) In Vivo Determination of Predictive Sedative-Hypnotic Action
The in vivo effects of these compounds were assessed by a predictive sedation-hypnosis test in mice (D. J. Sanger et al., Eur. J. Pharmacol., 313, 35-42, 1996; and G. Griebel et al., Psychopharmacology, 146, 205-213, 1999).
Groups of 5-8 male CD1 mice, weighing 22-26 g at the time of test, were used. The test compounds were administered in single equimolecular intraperitoneal doses, suspended in 0.25% agar with one drop of Tween 80 in a volume of 10 mL/kg. Two doses were tested in each route. Control animals received the vehicle alone. Using a Smart System (Panlab, S. L., Spain) the traveled distance in cm is recorded for each mouse at 5-min intervals during a period of 30 minutes after intraperitoneal (ip) dosing. The inhibition percentage of traveled distance of treated animals versus control animals (the first 5 min were discarded) and ED50 values were calculated.

HepG2 cells = assay: Cell toxicity (MTS cell viability) in HepG2 cells at 24 h; assay type: cell-based, human; conditions: HepG2 at 100 μM
Procedure: (§5) d) In Vitro Determination of Cell Toxicity in HepG2, CHO-K1 and HeLa Cells at 24 h
(§6) HepG2 (human hepatocellular carcinoma cells) and CHO-K1 (Chinese hamster ovary cells) were both obtained from the American Type Culture Collection (ATCC). HepG2 were cultured in Minimum Essential Medium (MEM) containing Earl's salts solution with 1.87 mM Glutamax® and supplemented with 1 mM sodium pyruvate, 0.1 mM non-essential amino acids, 100000 U/L penicillin, 100000 μg/L streptomycin and 10% Foetal Bovine Serum. CHO-K1 were maintained in Ham's F-12 medium containing 1 mM Glutamax® and supplemented with 1 mM L-glutamine, 100000 U/L penicillin, 100000 μg/L streptomycin and 10% Foetal Bovine Serum. Promega CellTiter 96® Aqueous One Solution Cell Viability Assay, contains the tetrazolium salt (MTS) that dehydrogenase enzymes found in metabolically active cells turn into the aqueous soluble formazan product. The quantity of formazan product is proportional to the number of living cells in culture.
(§7) Compounds were dissolved in DMSO to achieve an initial concentration of 100 mM. Serial dilutions were made from this stock solution in DMSO to achieve a range of concentrations from 50 to 0.25 mM. The stock solution and serial dilutions were then diluted 1:100 with the respective cell culture medium. In the case of CHO-K1 cells, concentrations at 1000, 500, 250, 100, 50, 25, 10, 5 and 2.5 μM were prepared to assess IC50, whereas in the case of HepG2 cells, final concentrations at 1000, 100, 10 and 1 μM final were assayed in order to calculate the percentage of cell. The final DMSO concentration in all wells was 1% v/v. Cell lines were both incubated with test compounds for 24 hours. Relative cell viability was determined spectro-photometrically at 490 nm following the addition of the MTS dye and further one-hour incubation. Tamoxifen was used as the positive control.

HeLa cells = assay: Cell toxicity in HeLa cells at 24 h; assay type: cell-based; conditions: HeLa at 100 μM
Procedure: as §5, §7
An analogous protocol was used to determine the cell toxicity in HeLa cells at 24 h.

[3] = Cell toxicity (MTS cell viability) in CHO-K1 cells at 24 h; assay type: cell-based; conditions: Chinese hamster
Procedure: as §5, §6
Compounds were dissolved in DMSO to achieve an initial concentration of 100 mM. Serial dilutions were made from this stock solution in DMSO to achieve a range of concentrations from 50 to 0.25 mM. […] Relative cell viability was determined spectro-photometrically at 490 nm following the addition of the MTS dye and further one-hour incubation. […]

[4] = Metabolic stability in human hepatocytes cytosolic fraction; assay type: in vitro ADME; conditions: 5 μM compound, 1.0 mg/mL pooled human cytosol, 37° C.
Procedure: c) In Vitro Determination of Metabolic Stability in Human Hepatocytes Cytosolic Fraction
Compounds were dissolved in dimethyl sulfoxide to achieve an initial concentration of 10 mM. This stock solution was then diluted with solvent and buffer to obtain final assay concentration of 5 μM. Compounds were tested at a single concentration of 5 μM in duplicate incubating with 1.0 mg/mL of pooled human cytosol (obtained from Xenotech plc) at 37° C. Metabolism was assessed in the presence or absence of cofactors and measured as loss of parent compound by LC/MS analysis at 0, 60 and 120-minutes time points. Percentages of remaining parent compounds were then calculated.

Compound	% inhib 10^−5M [1]	% inhib 10^−7M [1]	% inhib 10^−5M [2]	% inhib motor activity (mice)	% of cell viability (HepG2 cells)	% of cell viability (HepG2 cells; listed as indiplon)	% of cell viability (HeLa cells)	IC50 at 24 h [3]	ED50 (mice; Mus musculus, ip, read-out: ED50 in inducing sedation)	% of Parent ([4]; 60 min)	% of Parent ([4]; 120 min)	% of cell viability (HepG2 cells; listed as example 11)
CN(c1cc(-c2ccnc3c([N+](=O)[O-])cnn23)ccc1F)S(C)(=O)=O [Preparative example 5, N-{2-fluoro-5-[3-nitro-pyrazolo[1,5-a]pyrimidin-7-yl]-phenyl}-N-methyl-methanesulfonamide]	98.2%	42.3%	94.5%	89.0%	–	–	–	–	–	–	–	–
CC(=O)N(C)c1cccc(-c2ccnc3c(C(=O)c4cccs4)cnn23)c1 [Example 1 of US 6399621 (indiplon), N-{3-[3-(thiophene-2-carbonyl)-pyrazolo[1,5-a]pyrimidin-7-yl]-phenyl}-N-methyl-acetamide, reference compound]	–	–	–	–	70%	70%	67.9%	108 µM	–	–	–	–
Cc1nn2c(-c3ccc(F)c(N(C)S(C)(=O)=O)c3)ccnc2c1C#N [Preparative example 11, N-{2-fluoro-5-[3-cyano-2-methyl-pyrazolo[1,5-a]pyrimidin-7-yl]-phenyl}-N-methyl-methanesulfonamide]	97.7%	41.8%	95.0%	83.8%	84.5%	–	83.9%	186 µM	16.9 µmol/kg	88%	82%	84.5%
CCN(C(C)=O)c1cccc(-c2ccnc3c(C#N)cnn23)c1 [Zaleplon, reference compound]	–	–	77.4%	84.9%	–	–	–	–	–	–	–	–
COc1ccc(-c2ccnc3c(C(=O)c4cccs4)cnn23)cc1N(C)C(C)=O [Preparative example 14, N-{2-methoxy-5-[3-(thiophene-2-carbonyl)-pyrazolo[1,5-a]pyrimidin-7-yl]-phenyl}-N-methyl-acetamide]	97.3%	31.9%	–	89.6%	–	–	–	–	–	–	–	–
CN(c1cc(-c2ccnc3c(C#N)cnn23)ccc1F)S(C)(=O)=O [Preparative example 6, N-{2-fluoro-5-[3-cyano-pyrazolo[1,5-a]pyrimidin-7-yl]-phenyl}-N-methyl-methanesulfonamide]	98.1%	36.4%	87.5%	76.3%	–	–	–	–	–	86%	81%	–
CC(=O)N(C)c1cc(-c2ccnc3c(C(=O)c4cccs4)cnn23)ccc1C [Preparative example 13, N-{2-methyl-5-[3-(thiophene-2-carbonyl)-pyrazolo[1,5-a]pyrimidin-7-yl]-phenyl}-N-methyl-acetamide]	98.7%	39.8%	–	95.6%	–	–	–	–	–	–	–	–
